US20240158446A1, “CYCLIC COMPOUND HAVING SELECTIVE INHIBITORY ACTION ON KRAS OVER HRAS AND NRAS” (CHUGAI SEIYAKU KABUSHIKI KAISHA, priority 2021, published 2024)
Where two headings read alike, the source gives them in different places. Where a SMILES comes first, the peptide text is derived from it. Bridges are numbered along the chain shown (N, C = ends). [ ]: non-standard residue; d: D form. The star is where a group is joined. hPhe(3-Cl-4-CF3) = N[C@@H](CCc1ccc(C(F)(F)F)c(Cl)c1)C(=O)O; NMePhe(4-Me) = CN[C@@H](Cc1ccc(C)cc1)C(=O)O; NMeGly(cPent) = CN[C@H](C(=O)O)C1CCCC1; NEtPhe = CCN[C@@H](Cc1ccccc1)C(=O)O; NMeD = CN[C@@H](CC(=O)O)C(=O)O; NMeL = CN[C@@H](CC(C)C)C(=O)O; Morpholide = C1CN(*)CCO1; NMeA = CN[C@@H](C)C(=O)O; Ac5c = NC1(C(=O)O)CCCC1; Aze = O=C(O)[C@@H]1CCN1; NBuGly = CCCCNCC(=O)O; Sar = CNCC(=O)O

What was measured:
[1] = molecular target: GDP-bound KRAS wild-type protein (Homo sapiens, UniProt P01116); test: Binding to KRAS by surface plasmon resonance (SPR), Single Cycle Kinetics; details: GDP-bound KRAS wild-type protein, read-out: KRAS KD
[2] = molecular target: GDP-bound NRAS wild-type protein (Homo sapiens, UniProt P01111); test: Binding to NRAS by surface plasmon resonance (SPR), Single Cycle Kinetics; details: SPR, GDP-bound NRAS wild-type protein vs GDP-bound KRAS wild-type protein
[3] = molecular target: GDP-bound HRAS wild-type protein (Homo sapiens, UniProt P01112); test: Binding to HRAS by surface plasmon resonance (SPR), Single Cycle Kinetics; details: SPR, GDP-bound HRAS wild-type protein vs GDP-bound KRAS wild-type protein
[4] = SPR Single Cycle Kinetics, 1:1 binding model

Chain of GDP-bound NRAS wild-type protein (P01111 whole entry): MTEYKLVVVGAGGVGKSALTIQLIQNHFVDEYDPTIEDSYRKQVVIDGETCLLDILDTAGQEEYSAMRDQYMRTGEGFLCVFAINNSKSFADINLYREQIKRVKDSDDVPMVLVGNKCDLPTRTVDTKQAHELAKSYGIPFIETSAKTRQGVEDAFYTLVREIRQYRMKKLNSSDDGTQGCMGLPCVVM
Chain of GDP-bound HRAS wild-type protein (P01112 whole entry): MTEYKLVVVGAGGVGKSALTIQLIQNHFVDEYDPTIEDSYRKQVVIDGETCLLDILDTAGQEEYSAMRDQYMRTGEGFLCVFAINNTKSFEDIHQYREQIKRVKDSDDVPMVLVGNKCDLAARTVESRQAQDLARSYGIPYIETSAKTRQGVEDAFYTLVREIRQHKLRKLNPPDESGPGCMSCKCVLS
Chain of GDP-bound KRAS wild-type protein (P01116 whole entry): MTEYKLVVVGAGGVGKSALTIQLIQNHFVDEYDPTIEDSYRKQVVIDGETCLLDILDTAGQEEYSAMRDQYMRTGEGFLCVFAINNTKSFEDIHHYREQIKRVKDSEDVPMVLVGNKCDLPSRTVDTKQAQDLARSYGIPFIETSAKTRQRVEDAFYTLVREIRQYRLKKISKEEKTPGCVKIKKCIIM

SMILES	Kd [1, 4] [nM]	Kd ([1]; SPR, Single Cycle Kinetics) [nM]	NRAS/KRAS (ratio of KD value for NRAS to KD value for KRAS) [2]	HRAS/KRAS (ratio of KD value for HRAS to KD value for KRAS) [3]	other results
CCCCN1CC(=O)N(C)[C@@H](Cc2ccc(C)cc2)C(=O)N(C)CC(=O)N[C@@H](CCc2ccc(C(F)(F)F)c(Cl)c2)C(=O)N2CCC[C@H]2C(=O)NC2(CCCC2)C(=O)N(C)[C@@H](C2CCCC2)C(=O)N(C)[C@H](C(=O)N2CCOCC2)CC(=O)N(C)[C@@H](CC(C)C)C(=O)N[C@@H]([C@@H](C)CC)C(=O)N(C)CC1=O [PP0021] ([NMeL]I[Sar][NBuGly][NMePhe(4-Me)][Sar][hPhe(3-Cl-4-CF3)]P[Ac5c][NMeGly(cPent)][NMeD]-Morpholide; lactam N-11)	0.65	–	C (A compound having a KD ratio of 0.1 or more and less than 3 is denoted as C)	C (A compound having a KD ratio of 0.1 or more and less than 3 is denoted as C)	–
CC[C@H](C)[C@@H]1NC(=O)[C@H](CC(C)C)N(C)C(=O)C[C@@H](C(=O)N2CCOCC2)N(C)C(=O)[C@H](C2CCCC2)N(C)C(=O)C2(CCCC2)NC(=O)[C@@H]2CCCN2C(=O)[C@H](CCc2ccc(C(F)(F)F)c(Cl)c2)NC(=O)CN(C)C(=O)[C@H](Cc2ccccc2)N(CC)C(=O)[C@@H]2CCN2C(=O)[C@H](C)N(C)C1=O [PP0215] ([NMeL]I[NMeA][Aze][NEtPhe][Sar][hPhe(3-Cl-4-CF3)]P[Ac5c][NMeGly(cPent)][NMeD]-Morpholide; lactam N-11)	0.41	–	C (A compound having a KD ratio of 0.1 or more and less than 3 is denoted as C)	C (A compound having a KD ratio of 0.1 or more and less than 3 is denoted as C)	–
CCCO[C@H]1CCN2C(=O)[C@H](CCc3cc(F)c(C(F)(F)F)c(F)c3)NC(=O)CN(C)C(=O)[C@H](Cc3ccc(C(F)(F)F)cc3)N3CCCCC[C@@H](C3=O)N(C)C(=O)CN(C)C(=O)[C@H]([C@@H](C)CC)NC(=O)[C@H](CC(C)C)N(C)C(=O)C[C@@H](C(=O)N3CCOCC3)N(C)C(=O)[C@H](C3CCCC3)N(C)C(=O)C3(CCC3)NC(=O)[C@H]12 [PP1069]	–	2.5	A (a compound having 10 or more and less than 20 is denoted as A)	B (a compound having 3 or more and less than 10 is denoted as B)	–
CCO[C@@H]1C[C@H]2C(=O)NC3(CCC3)C(=O)N(C)[C@@H](C3CCCC3)C(=O)N(C)[C@H](C(=O)N(C)C)CC(=O)N(C)[C@@H](CC(C)C)C(=O)N[C@@H]([C@@H](C)CC)C(=O)N(C)CC(=O)N(C)[C@H]3C/C=C\CCN(C3=O)[C@@H](Cc3ccc(F)cc3C)C(=O)N(C)CC(=O)N[C@@H](CCc3cc(F)c(C(F)(F)F)c(F)c3)C(=O)N2C1 [PP1532]	–	–	–	–	Kd ([1]; SPR, Single Cycle Kinetics, 1:1 binding model): 0.19 nM; NRAS/KRAS (ratio of KD value for NRAS to KD value for KRAS) ([2]; KD ratio class): A (a compound having 10 or more and less than 20 is denoted as A); HRAS/KRAS (ratio of KD value for HRAS to KD value for KRAS) ([3]; KD ratio class): B (a compound having 3 or more and less than 10 is denoted as B)
CC[C@H](C)[C@@H]1NC(=O)[C@H](CC(C)C)N(C)C(=O)C[C@@H](C(=O)N2CCOCC2)N(C)C(=O)[C@H](C2CCCC2)N(C)C(=O)C2(CCCC2)NC(=O)[C@@H]2CCCN2C(=O)[C@H](CCc2ccc(C(F)(F)F)c(Cl)c2)NC(=O)CN(C)C(=O)[C@H](Cc2ccc(OC)cc2)N2CCCC[C@@H](C2=O)N(C)C(=O)CN(C)C1=O [PP0534]	0.16	–	–	–	NRAS/KRAS (ratio of KD value with respect to NRAS to KD value with respect to KRAS) [2]: B (a compound having 3 or more and less than 10 is denoted as B); HRAS/KRAS (ratio of KD value with respect to HRAS to KD value with respect to KRAS) [3]: B (a compound having 3 or more and less than 10 is denoted as B)

Further lines, with some results ahead:

Kd [1, 4] [nM]	Kd ([1]; SPR, Single Cycle Kinetics) [nM]	SMILES	NRAS/KRAS (ratio of KD value for NRAS to KD value for KRAS) [2]	HRAS/KRAS (ratio of KD value for HRAS to KD value for KRAS) [3]	other results
–	0.22	CCCN(C)C(=O)[C@@H]1CC(=O)N(C)[C@@H](C2CCC2)C(=O)N[C@@H]([C@@H](C)CC)C(=O)N(C)CC(=O)N(C)[C@H]2C/C=C\CCN(C2=O)[C@@H](Cc2ccc(C(F)(F)F)cc2)C(=O)N(C)CC(=O)N[C@@H](CCc2cc(F)c(C(F)(F)F)c(F)c2)C(=O)N2C[C@@H](C)C[C@H]2C(=O)NC2(CCC2)C(=O)N(C)[C@@H](C2CCCC2)C(=O)N1C [PP2083]	A (a compound having 10 or more and less than 20 is denoted as A)	B (a compound having 3 or more and less than 10 is denoted as B)	–
–	0.49	CCC[C@@H]1C[C@H]2C(=O)NC3(CCCC3)C(=O)N(C)[C@@H](C3CCCC3)C(=O)N(C)[C@H](C(=O)N(C)CC)CC(=O)N(C)[C@@H](C)C(=O)N[C@@H]([C@@H](C)CC)C(=O)N(C)CC(=O)N(C)[C@H]3C/C=C\CCN(C3=O)[C@@H](Cc3ccc(C(F)(F)F)cc3)C(=O)N(C)CC(=O)N[C@@H](CCc3cc(F)c(C(F)(F)F)c(F)c3)C(=O)N2C1 [PP2272]	AA (a compound having 20 or more is denoted as AA)	A (a compound having 10 or more and less than 20 is denoted as A)	–
